For ten compounds, IC50, inhibition and Activity results are on record in ChEMBL document CHEMBL4190294, “Design, synthesis and antiproliferative activity of decarbonyl luotonin analogues” (Eur J Med Chem, 2017).

One assay relates to MDA-MB-231. As to the kind of experiment: Cytotoxicity against human MDA-MB-231 cells assessed as reduction in cell viability after 72 hrs by MTT assay. Format: functional, cell-based. Particulars: MDA-MB-231, 72 h. On the technique in general: Tetrazolium assays rely on reduction of a dye to a coloured formazan, in cell work by metabolically active cells.
The test system of a further assay is HT-1080. Kind of assay: Cytotoxicity against human HT1080 cells assessed as reduction in cell viability after 72 hrs by MTT assay. It is filed as functional, cell-based. Particulars: HT-1080, 72 h.
Assay [1] concerns KB. As to the kind of experiment: Cytotoxicity against human KB cells assessed as reduction in cell viability after 72 hrs by MTT assay. Format: functional, cell-based.
Assay [2] has as its target T1, DNA topoisomerase 1 (Homo sapiens) (UniProt P11387).
T1 sequence (whole entry): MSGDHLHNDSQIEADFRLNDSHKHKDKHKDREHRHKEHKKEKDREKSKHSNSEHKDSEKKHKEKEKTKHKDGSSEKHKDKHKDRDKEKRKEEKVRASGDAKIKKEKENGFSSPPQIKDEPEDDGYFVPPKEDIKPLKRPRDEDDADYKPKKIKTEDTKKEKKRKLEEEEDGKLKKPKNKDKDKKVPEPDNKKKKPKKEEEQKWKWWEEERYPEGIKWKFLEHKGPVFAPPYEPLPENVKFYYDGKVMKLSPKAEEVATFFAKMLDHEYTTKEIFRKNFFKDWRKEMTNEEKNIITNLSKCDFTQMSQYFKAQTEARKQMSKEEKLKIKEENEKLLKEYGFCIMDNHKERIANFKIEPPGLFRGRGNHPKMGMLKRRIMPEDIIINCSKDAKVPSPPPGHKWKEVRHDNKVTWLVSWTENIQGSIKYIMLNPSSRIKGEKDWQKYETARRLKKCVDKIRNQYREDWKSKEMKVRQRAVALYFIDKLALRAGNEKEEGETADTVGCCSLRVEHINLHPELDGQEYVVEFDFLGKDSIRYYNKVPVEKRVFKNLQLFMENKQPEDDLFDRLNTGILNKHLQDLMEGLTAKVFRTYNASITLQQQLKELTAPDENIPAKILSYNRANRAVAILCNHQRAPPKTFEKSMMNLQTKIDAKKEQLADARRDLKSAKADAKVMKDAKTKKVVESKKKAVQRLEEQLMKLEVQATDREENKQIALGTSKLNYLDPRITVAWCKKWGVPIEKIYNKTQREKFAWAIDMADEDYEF
Kind of assay: Inhibition of human topoisomerase-1 expressed in baculovirus infected insect cells at 80 uM using supercoiled pGEM-5Zf(+) plasmid DNA as substrate after 30 mins by agarose gel electrophoresis method.

Another assay concerns LNCaP. As to the kind of experiment: Cytotoxicity against human LNCAP cells assessed as reduction in cell viability after 72 hrs by MTT assay. Format: functional, cell-based.
Assay [3] concerns KB. Kind of assay: Cytotoxicity against human KB cells assessed as reduction in cell viability at 12.5 uM after 72 hrs by MTT assay. It is filed as functional, cell-based.

Active and inactive are the calls of the source. The rule behind the calls is not given here.

As to `Brc1cccc2cc3c(nc12)-c1nc2ccccc2n1C3`, the IC50 (in general, the concentration that inhibits the measured activity by half) in the assay with MDA-MB-231 was determined as 11.3 µM; in the assay on HT-1080 it was 66 µM; in the assay with KB [1], 15.3 µM; in the assay with LNCaP it was 8.4 µM. Also, in assay [2], the inhibition entry was “Active”.
In the case of `COc1cccc2cc3c(nc12)-c1nc2ccccc2n1C3`, the IC50 in the assay on MDA-MB-231 is over 100 µM; in the assay on HT-1080 it was over 100 µM; in the assay with KB [1] it was 16.9 µM; in the assay on LNCaP, 20 µM. In addition, the inhibition entry in assay [2] was “Active”.
`Cc1ccc2nc3c(cc2c1)Cn1c-3nc2ccccc21`: the concentration for half-maximal inhibition (IC50) is over 100 µM in the assay with MDA-MB-231, 9.3 µM in the assay with HT-1080, 11.3 µM in the assay with KB [1] and 62.5 µM with LNCaP. In addition, in assay [2], the inhibition entry was “Active”.
In the case of `COc1ccc2cc3c(nc2c1)-c1nc2ccccc2n1C3`, the IC50 in the assay with MDA-MB-231 is over 100 µM; in the assay with HT-1080, 95 µM; with KB [1], 40.6 µM; in the assay on LNCaP, 25 µM. Moreover, the inhibition entry in assay [2] was “Active”.
For `c1ccc2nc3c(cc2c1)Cn1c-3nc2ccccc21`, the IC50 with MDA-MB-231 was found to be 12 µM; with HT-1080, 52.9 µM; with KB [1], 10.9 µM; with LNCaP, 11.3 µM. Besides, the inhibition result in assay [2] was “Active”.
As for `Cc1cccc2cc3c(nc12)-c1nc2ccccc2n1C3`, the IC50 in the assay with MDA-MB-231 is over 100 µM; with HT-1080, over 100 µM; with KB [1], 20 µM; in the assay with LNCaP, 23.8 µM. Further, the inhibition result in assay [2] is “Active”.
Consider `Cc1ccc2cc3c(nc2c1)-c1nc2ccccc2n1C3`, for which the IC50 was over 100 µM in the assay on MDA-MB-231, 8.7 µM in the assay with HT-1080, 75 µM in the assay on KB [1] and 39 µM in the assay with LNCaP. In assay [2], the inhibition result is “Active”.
For `Clc1cccc2cc3c(nc12)-c1nc2ccccc2n1C3`, the IC50 with MDA-MB-231 is 69 µM; with HT-1080, 28.7 µM; in the assay with KB [1], 11.5 µM; in the assay with LNCaP, 24 µM. In addition, the result with KB [3] was Active.
For `O=c1c2ccccc2nc2n1Cc1cc3ccccc3nc1-2`, the outcome with KB [3] was Active.
With `COc1ccc2nc3c(cc2c1)Cn1c-3nc2ccccc21`, the IC50 in the assay on MDA-MB-231 is over 100 µM; in the assay with HT-1080, 52.3 µM; in the assay with KB [1], 20 µM; with LNCaP it was 24.7 µM. Further, the inhibition entry in assay [2] was “Active”.
